{
  "source": "patent US20170027968A1",
  "about": "“ANTI-CANCER AGENT” (KTN BIOTEC, INC., priority 2013, published 2017)",
  "key": {"[1]": {"test_system": "Met5A (human non-malignant mesothelioma cell)", "test": "Cell viability assay (MTT), Met5A", "format": "cell-based", "settings": "Met5A, 1, 10, 100 μM, 24 hr or 48 hr; FIG. 3A", "protocol": "(§1) NCI-H28 which is a cell line of human malignant pleural mesothelioma and Met5A which is a cell line of human non-malignant mesothelioma were used. These cells were purchased from American Type Culture Collection (Manassas, Va., USA). The cells were cultured in Roswell Park Memorial Institute (RPMI)-1640 medium added with 0.003% (w/v) L-glutamine. The cells were incubated in a medium added with 10% (v/v) heat-inactivated bovine serum, penicillin (final concentration, 100 U/ml) and streptomycin (final concentration, 0.1 mg/ml) in a humid environment under 5% CO2 and 95% air at 37° C.\n(§2) The cell viability was evaluated according to previous report (Nogi Y, et al., Cell Physiol Biochem 2012; 30: 61-74.) by using 3-(4,5-dimethyl-2-thiazolyl)-2,5-diphenyl-2H-tetrazolium bromide (MTT). The measurement was performed by treating Met5A (human non-malignant mesothelioma cell) and NCI-H28 (human malignant mesothelioma cell) for 24 hr or 48 hr while changing the concentration of DPPE to 0, 1 μM, 10 μM and 100 μM."}, "[2]": {"test_system": "NCI-H28 (human malignant mesothelioma cell)", "test": "Cell viability assay (MTT), NCI-H28", "format": "cell-based", "settings": "NCI-H28, 1, 10, 100 μM, 24 hr or 48 hr; FIG. 3B", "protocol": "as §1, §2"}, "[3]": {"test_system": "Met5A (human non-malignant mesothelioma cell)", "test": "TUNEL staining, Met5A", "format": "cell-based", "settings": "30 μM and 100 μM, 48 hr, FIG. 4", "protocol": "(§3) NCI-H28 which is a cell line of human malignant pleural mesothelioma and […] which is a cell line of human non-malignant mesothelioma were used. These cells were purchased from American Type Culture Collection (Manassas, Va., USA). The cells were cultured in Roswell Park Memorial Institute (RPMI)-1640 medium added with 0.003% (w/v) L-glutamine. The cells were incubated in a medium added with 10% (v/v) heat-inactivated bovine serum, penicillin (final concentration, 100 U/ml) and streptomycin (final concentration, 0.1 mg/ml) in a humid environment under 5% CO2 and 95% air at 37° C. To detect in situ DNA fragmentation to be the index of apoptosis, TUNEL staining was performed using In Situ Apoptosis Detection Kit (Takara Bio; Otsu, Japan). The cells fixed and membrane-permeabilized were incubated with terminal deoxynucleotidyl transferase and fluorescein isothiocyanate (FITC)-deoxyuridinetriphosphate at 37° C. for 90 min. FITC signal was visualized by a confocal laser microscope (LSM 510; Carl Zeiss Co., Ltd., Oberkochen, Germany). The cells used were […] (human non-malignant mesothelioma cell) and NCI-H28 (human malignant mesothelioma cell), after a treatment for 48 hr by changing the concentration of DPPE to 0, 30 μM and 100 μM."}, "[4]": {"test_system": "NCI-H28 (human malignant mesothelioma cell)", "test": "TUNEL staining, NCI-H28", "format": "cell-based", "settings": "NCI-H28, 30 μM and 100 μM, 48 hr; FIG. 4", "protocol": "as §3"}, "Human recombinant PP2A": {"test_system": "Human recombinant PP2A", "test": "Assay of PP2A activity under cell-free conditions (p-NPP substrate)", "settings": "100 μM, preincubated 37° C. 30 min, p-NPP 0.5 mM 60 min, FIG. 1A", "from_the_text": "(§4) Human recombinant PP2A was purchased from Millipore (Billerica, Mass., USA). Human PTP1B was cloned to pGEX-6P-3 vector having a GST tag on the NH2 terminal, and expressed in competent E. coli 3L21 (DE3) suitable for transformation and protein expression. GST fused PTP1B was affinity-purified using glutathione sepharose 4B (GE Healthcare Bio-Science KK, Tokyo, Japan). They were reacted with p-nitrophenylphosphate (p-NPP) (Sigma, St. Louis, Mo., USA) as a substrate, and each phosphatase activity was measured. PP2A (0.2 U/well) or PTP1B (1 mg/well) was preincubated in a reaction medium at 37° C. for 30 min. in the presence and absence of a phosphatase inhibitor (okadaic acid; 2 nM, sodium vanadate; 1 μM) and, phosphatidylethanolamine (DAPE, DLPE, DOPE, DPPE; 100 μM, all obtained from Avanti Polar Lipids, Inc. (Alabaster, Ala., USA)). • reaction medium for PP2A: 50 mM Tris-HCl, 0.1 mM EGTA, 0.1% (v/v) 2-mercaptoethanol, pH 7.0 • reaction medium for PTP1B: 50 mM HEPES, 1 mM EDTA, 50 mM NaCl, 1 mM dithiothreitol, pH 7.2\n(§5) Then, p-NPP (0.5 mM for PP2A, 10 mM for PTP1B) was added to the reaction medium and incubation was continued for 60 min. The reaction was discontinued by adding 0.1N NaOH. Dephosphorylated p-NPP, namely, p-NP, was quantified at absorbance 405 nm by using SpectraMax PLUS384 (Molecular Devices, Sunnyvale, Calif., USA)."}, "Human PTP1B (GST fused)": {"molecular_target": "T1, Human PTP1B (GST fused) (Homo sapiens, UniProt P18031)", "T1 sequence (P18031 1-435)": "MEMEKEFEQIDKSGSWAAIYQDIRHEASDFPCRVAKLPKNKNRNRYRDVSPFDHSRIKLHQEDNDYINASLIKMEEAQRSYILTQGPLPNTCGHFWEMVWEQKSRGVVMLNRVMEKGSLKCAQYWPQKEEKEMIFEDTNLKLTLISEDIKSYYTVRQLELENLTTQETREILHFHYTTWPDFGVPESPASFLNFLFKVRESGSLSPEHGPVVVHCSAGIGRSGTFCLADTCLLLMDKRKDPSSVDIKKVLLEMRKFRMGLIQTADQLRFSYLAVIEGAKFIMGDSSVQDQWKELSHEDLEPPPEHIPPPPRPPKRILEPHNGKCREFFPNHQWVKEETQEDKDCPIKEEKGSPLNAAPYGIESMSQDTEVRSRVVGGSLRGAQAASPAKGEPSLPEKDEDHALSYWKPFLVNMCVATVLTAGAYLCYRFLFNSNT", "test": "Assay of PTP1B activity under cell-free conditions (p-NPP substrate)", "settings": "100 μM, preincubated 37° C. 30 min, p-NPP 10 mM 60 min, FIG. 1B", "from_the_text": "as §4, §5"}},
  "data": [
    {"smiles": "CCCCCC/C=C\\CCCCCCCC(=O)OC[C@H](COP(=O)(O)OCCN)OC(=O)CCCCCCC/C=C\\CCCCCC", "note": "[DPPE, 1,2-dipalmitoleoyl-sn-glycero-3-phosphoethanolamine]", "values": [
      {"measurement": "cell survival rate (MTT)", "setting": "[1]", "value": "almost uninfluential on the non-malignant mesothelioma cell"},
      {"measurement": "cell survival rate (MTT)", "setting": "[2]", "value": "induces concentration-dependent cell death in the malignant mesothelioma cell"},
      {"measurement": "apoptosis (TUNEL-stained cells relative to total cells)", "setting": "[3]", "value": "does not induce apoptosis of the non-malignant mesothelioma cell"},
      {"measurement": "apoptosis (TUNEL-stained cells relative to total cells)", "setting": "[4]", "value": "induces apoptosis of the malignant mesothelioma cell"},
      {"measurement": "PP2A activation enhancing action (phosphatase activity relative to control)", "setting": "Human recombinant PP2A", "value": "strong PP2A activation enhancing action"},
      {"measurement": "PTP1B activation enhancing action (phosphatase activity relative to control)", "setting": "Human PTP1B (GST fused)", "value": "PTP1B activation enhancing action"}
    ]}
  ]
}
